Source: patent publication US12397518B2, “WS12-releasing contact lens” (CooperVision International Limited, priority 2021, dated 2025)

What was measured:
[1] = WS12 leaching into PBS packaging solution during autoclave (HPLC); assay type: physicochemical; details: standard contact lens sterilization and storage conditions
Experimental: Silicone hydrogel contact lenses were prepared by curing the formulation for stenfilcon A in contact lens molds. The cured stenfilcon A was removed from the molds and extracted by immersing them for 215 minutes in ethanol (EtOH) containing WS12 (Tocris Bioscience) in the loading concentrations shown in Table I. The lenses were removed from the EtOH and washed in DI water for approximately 6 minutes, followed by two exchanges of DI water for approximately 30 minutes each. The lenses were transferred to 6 mL glass vials containing 3 mL phosphate buffered saline at pH 7.5 (0.78 wt. % NaCl, 0.05 wt. % sodium phosphate monobasic, and 0.36 wt. % sodium phosphate dibasic), referred to herein as PBS. The vials were sealed and autoclaved.
Each autoclaved lens was transferred to a vial containing 3 ml EtOH and stored overnight on a 150 rpm shaker at room temperature to extract WS12 from the lens. The EtOH extracts and the PBS in which the lenses were autoclaved were submitted for analysis by HPLC (detection wavelength=250 nm) against calibration standards to determine the average amount of WS12 loaded into each (n=5) and whether the WS12 leaches from the lens during autoclave.

[2] = target: transient receptor potential melastatin-8 (TRPM8) ion channels (Homo sapiens, UniProt Q7Z2W7); details: background statement; cited from earlier work
Chain of transient receptor potential melastatin-8 (TRPM8) ion channels (Q7Z2W7 whole entry, species assumed): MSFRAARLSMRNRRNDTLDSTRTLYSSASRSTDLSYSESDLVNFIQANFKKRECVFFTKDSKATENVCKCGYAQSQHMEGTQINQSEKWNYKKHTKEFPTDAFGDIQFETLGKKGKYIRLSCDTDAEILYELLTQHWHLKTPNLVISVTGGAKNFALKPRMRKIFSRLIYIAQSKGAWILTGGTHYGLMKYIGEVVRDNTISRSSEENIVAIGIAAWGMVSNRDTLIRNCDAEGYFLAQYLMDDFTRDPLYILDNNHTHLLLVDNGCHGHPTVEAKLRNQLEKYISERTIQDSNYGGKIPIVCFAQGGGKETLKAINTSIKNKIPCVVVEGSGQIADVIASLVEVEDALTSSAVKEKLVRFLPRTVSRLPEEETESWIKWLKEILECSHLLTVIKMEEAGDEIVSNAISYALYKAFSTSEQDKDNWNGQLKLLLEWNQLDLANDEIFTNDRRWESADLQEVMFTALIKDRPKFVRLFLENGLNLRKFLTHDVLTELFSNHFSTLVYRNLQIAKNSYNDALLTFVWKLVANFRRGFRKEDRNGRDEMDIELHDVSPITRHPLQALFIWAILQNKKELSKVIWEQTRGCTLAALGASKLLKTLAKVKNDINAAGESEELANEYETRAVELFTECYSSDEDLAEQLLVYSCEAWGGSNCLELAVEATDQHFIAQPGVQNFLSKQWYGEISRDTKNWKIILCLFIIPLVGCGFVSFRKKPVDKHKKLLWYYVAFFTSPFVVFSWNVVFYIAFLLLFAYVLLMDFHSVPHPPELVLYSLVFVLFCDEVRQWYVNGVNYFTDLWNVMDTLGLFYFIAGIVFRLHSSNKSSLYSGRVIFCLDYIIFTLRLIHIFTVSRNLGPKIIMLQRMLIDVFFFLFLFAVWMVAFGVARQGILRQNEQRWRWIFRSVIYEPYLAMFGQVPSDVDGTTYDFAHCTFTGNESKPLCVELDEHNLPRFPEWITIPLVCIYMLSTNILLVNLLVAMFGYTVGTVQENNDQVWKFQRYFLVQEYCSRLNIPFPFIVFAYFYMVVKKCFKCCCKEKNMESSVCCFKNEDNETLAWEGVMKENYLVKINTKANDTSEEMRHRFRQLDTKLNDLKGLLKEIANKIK

stability of WS12 in hydrogel contact lens material [1]: without degradation or leaching
SMILES: COc1ccc(NC(=O)C2CC(C)CCC2C(C)C)cc1 (centres unmarked) [WS12, N-(4-Methoxyphenyl)-5-methyl-2-(1-methylethyl)cyclohexanecarboxamide]
activation of TRPM8 ion channels [2]: selectively activates
